Assay results: patent publication US7579356B2, “Thia-tetraazaacenaphthylene kinase inhibitors” (Janssen Pharmaceutica NV, priority 2005, dated 2009)

Legend:
Assay type in all cases: biochemical
HER-2 = biological target: T1, HER-2 (Homo sapiens, UniProt P04626); experiment: HER-2 Kinase Assay; conditions: for inhibition at 1 µM: test concentration of 1 μM; for IC50: value in parentheses
T1 construct: His6 with thrombin site (N); purchased Proqinase (Freiburg, Germany)
Procedure, shortened: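 Read-out was scintillation counting of 33P incorporated into biotinylated polyGluTyr captured on streptavidin plates. Reactions ran 1 h at 30 °C with GST-fused HER-2 residues 679–1255, 1 μM ATP, Mn2+ and Mg2+ at pH 7.5; data given as percent inhibition at 1 μM, with IC50 where determined.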

Lyn kinase (human) = biological target: T2, Lyn kinase (human) (Homo sapiens, UniProt P07948); experiment: Lyn Kinase Assay; conditions: test concentration of 2 μM
T2 construct: purchased Upstate Biotechnology, Lake Placid, N.Y
T2 sequence (P07948 whole entry): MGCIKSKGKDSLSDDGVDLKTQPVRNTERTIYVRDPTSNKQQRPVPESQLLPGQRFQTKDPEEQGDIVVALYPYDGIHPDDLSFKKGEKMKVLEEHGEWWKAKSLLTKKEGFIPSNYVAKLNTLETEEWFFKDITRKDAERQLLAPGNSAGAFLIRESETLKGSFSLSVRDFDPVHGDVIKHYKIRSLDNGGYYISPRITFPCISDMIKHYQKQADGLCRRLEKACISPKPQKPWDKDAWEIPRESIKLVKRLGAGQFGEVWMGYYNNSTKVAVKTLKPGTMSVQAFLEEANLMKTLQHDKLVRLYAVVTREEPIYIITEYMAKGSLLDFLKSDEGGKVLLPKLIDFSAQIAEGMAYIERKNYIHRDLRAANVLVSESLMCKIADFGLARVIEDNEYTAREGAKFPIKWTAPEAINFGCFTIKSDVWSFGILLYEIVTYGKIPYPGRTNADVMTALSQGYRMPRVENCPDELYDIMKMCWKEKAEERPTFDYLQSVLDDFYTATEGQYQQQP
Protocol: A mixture of a 10× kinase buffer (500 mM MOPS at pH 7.5, 1 mM EGTA, 1 mM Sodium Vanadate, 1% β-mercaptoethanol and 100 mM Magnesium Acetate), ATP (5 μM final from a 10 mM stock), polyGluTyr (0.1 mg/mL final from a 1 mg/mL stock), γ-^33P ATP (10 μCl/μL stock) and water (for a total of 20 μL/well) was added to each well of a Streptavidin Flashplate.
Test compound in 100% DMSO (0.5 μL) was added to the appropriate wells. Diluted Lyn kinase (human)(Accession Number EMBL M16038) (Upstate Biotechnology, Lake Placid, N.Y.) (diluted in a buffer consisting of 50 mM Tris at pH 7.5, 0.1 mM EGTA, Sodium Vanadate (0.1 mM), β-mercaptoethanol (0.1%) and 1 mg/mL bovine serum albumin) (2.5 μL) was added to the wells to initiate the reactions.
The reaction plates were incubated at 30° C. for 40 min. The reaction was terminated by the addition of a 3% phosphoric acid solution (5 μL). The reaction product (10 μL) was spotted onto a P30 filtermat and washed for 5 minutes in phosphoric acid (75 mM). The wash sequence was repeated two more times, followed with one final wash in methanol. The plates were then dried, sealed and read on the TopCount scintillation counter after adding 30 μL scintillation fluid.
(§1) The Lyn inhibition values were derived according to the procedure described in Example 164 and are shown as percent in Table 3 at a test concentration of 2 μM. For those compounds with an IC50, the IC50 value in μM is shown in parentheses. For compounds with multiple test values, each value represents a separate assay result.

EGFR = biological target: T3, EGFR (Homo sapiens, UniProt P00533); experiment: EGFR Kinase Assay; conditions: for inhibition at 2 µM: test concentration of 2 μM, compounds without an IC50, read-out: EGFR inhibition in percent; for IC50: GST-EGFR, ATP 5 μM
T3 construct: The intracellular portion of EGFR started at nucleotide 2189 (corresponding to amino acid 667) and ended at the termination codon; made in house; host or cells: Sf9 insect cells (baculovirus)
T3 sequence (P00533 669-1210 limits assumed): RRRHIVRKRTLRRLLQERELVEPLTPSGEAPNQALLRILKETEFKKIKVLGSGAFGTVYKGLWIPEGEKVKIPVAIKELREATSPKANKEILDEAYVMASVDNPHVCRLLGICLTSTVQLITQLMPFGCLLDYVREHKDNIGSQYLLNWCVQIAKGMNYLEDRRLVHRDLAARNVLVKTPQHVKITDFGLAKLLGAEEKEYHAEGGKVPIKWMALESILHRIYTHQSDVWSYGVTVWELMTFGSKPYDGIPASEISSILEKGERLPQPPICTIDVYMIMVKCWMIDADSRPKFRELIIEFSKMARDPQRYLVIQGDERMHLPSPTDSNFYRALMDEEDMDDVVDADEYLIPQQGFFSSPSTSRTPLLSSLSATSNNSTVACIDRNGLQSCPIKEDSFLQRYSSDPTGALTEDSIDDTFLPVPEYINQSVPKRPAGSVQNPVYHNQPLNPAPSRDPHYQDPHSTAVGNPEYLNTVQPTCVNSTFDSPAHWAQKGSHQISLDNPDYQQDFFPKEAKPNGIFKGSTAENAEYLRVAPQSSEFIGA
Procedure, shortened: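 Potency came from triplicate 16-point half-log titrations starting at 200 uM, with IC50 fitted from % inhibition against log concentration, or % inhibition at 2 μM otherwise. Reaction: Sf9-made GST–EGFR cytoplasmic region (aa 667 onward), biotin-polyGluTyr, 5 μM ATP with 33P tracer, pH 8.0 Tris/Mg/vanadate/DTT, 30 °C for 1 h; captured on streptavidin Flashplates and counted.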

c-Src kinase (human) = biological target: T4, c-Src kinase (human) (Homo sapiens, UniProt P12931); experiment: c-Src Kinase Assay; conditions: test concentration of 2 μM; multiple values are separate assay results
T4 construct: purchased Upstate Biotechnology, Lake Placid, N.Y
T4 sequence (P12931 whole entry): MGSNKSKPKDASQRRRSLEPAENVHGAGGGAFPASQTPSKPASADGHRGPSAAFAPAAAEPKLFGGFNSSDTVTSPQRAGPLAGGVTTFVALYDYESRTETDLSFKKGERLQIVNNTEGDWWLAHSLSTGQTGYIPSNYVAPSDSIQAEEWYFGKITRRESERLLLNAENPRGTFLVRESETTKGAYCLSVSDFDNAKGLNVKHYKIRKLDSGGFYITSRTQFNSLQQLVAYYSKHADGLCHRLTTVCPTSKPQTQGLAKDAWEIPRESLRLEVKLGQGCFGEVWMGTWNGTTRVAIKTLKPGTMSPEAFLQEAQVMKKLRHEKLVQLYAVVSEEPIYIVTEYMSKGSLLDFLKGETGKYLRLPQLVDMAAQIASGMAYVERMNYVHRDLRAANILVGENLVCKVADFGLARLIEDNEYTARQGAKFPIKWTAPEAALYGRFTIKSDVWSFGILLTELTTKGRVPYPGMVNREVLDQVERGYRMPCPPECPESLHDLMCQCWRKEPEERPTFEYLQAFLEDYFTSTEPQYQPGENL
Protocol: A mixture of a 10× kinase buffer (80 mM MOPS at pH 7.0, 2 mM EDTA and 100 mM Magnesium Chloride), ATP (5 μM final from a 10 mM stock), a Cdc2 peptide KVEKIGEGTYGVVYK (100 μM final from a 2.5 mM stock), γ-^33P ATP (10 μCl/μL stock) and water (for a total of 20 μL/well) was added to each well of a Streptavidin Flashplate.
Test compound in 100% DMSO (0.5 μL) was added to the appropriate wells. Diluted c-Src kinase (human) (Accession Number SWISS-PROT P12931) (Upstate Biotechnology, Lake Placid, N.Y.) (diluted in a buffer consisting of 20 mM MOPS at pH 7.0, 1 mM EDTA, β-mercaptoethanol (0.1%), Brij-35 (0.01%), glycerol (5%), and 1 mg/mL bovine serum albumin) (2.5 μL) was added to the wells to initiate the reactions. The reaction plates were incubated at 30° C. for 40 min. The reaction was terminated by the addition of a 3% phosphoric acid solution (5 μL). The reaction product (10 μL) was spotted onto a P30 filtermat and washed for 5 minutes in phosphoric acid (75 mM). The wash sequence was repeated two more times, followed with one final wash in methanol. The plates were then dried, sealed and read on the TopCount scintillation counter after adding 30 μL scintillation fluid.
as §1, with “c-Src” for “Lyn”, “using” for “according to”, “percent inhibition formula provided” for “procedure described”, “2” for “3”

T1 sequence (P04626 679-1255): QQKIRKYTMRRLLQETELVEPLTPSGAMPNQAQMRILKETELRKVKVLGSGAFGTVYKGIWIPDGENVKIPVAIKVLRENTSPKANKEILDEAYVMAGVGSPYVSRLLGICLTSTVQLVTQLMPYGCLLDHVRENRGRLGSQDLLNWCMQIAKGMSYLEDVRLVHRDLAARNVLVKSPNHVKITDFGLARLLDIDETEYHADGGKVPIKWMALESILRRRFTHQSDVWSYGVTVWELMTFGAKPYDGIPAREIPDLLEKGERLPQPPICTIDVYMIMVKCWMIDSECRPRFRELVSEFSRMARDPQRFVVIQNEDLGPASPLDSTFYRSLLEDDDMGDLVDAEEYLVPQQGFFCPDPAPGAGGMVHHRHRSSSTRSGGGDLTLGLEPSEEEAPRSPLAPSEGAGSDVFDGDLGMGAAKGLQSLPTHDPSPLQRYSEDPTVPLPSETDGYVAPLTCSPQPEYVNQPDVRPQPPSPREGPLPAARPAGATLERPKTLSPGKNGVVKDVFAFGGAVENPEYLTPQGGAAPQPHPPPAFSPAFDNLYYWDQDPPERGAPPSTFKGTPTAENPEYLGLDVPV

Q: What does the source list for `COc1cc(N2C(=O)Nc3c(C(=O)Nc4ccc(CN5CCOCC5)cc4)sc4ncnc2c34)c(Cl)cc1Cl` [Cpd 44, 5-(2,4-dichloro-5-methoxy-phenyl)-4-oxo-4,5-dihydro-3H-1-thia-3,5,6,8-tetraaza-acenaphthylene-2-carboxylic acid (4-morpholin-1-ylmethyl-phenyl)-amide]?
A: inhibition at 1 µM (HER-2): 21%; inhibition at 2 µM (Lyn kinase (human)): 49%; inhibition at 2 µM (EGFR): 26%; inhibition at 2 µM (c-Src kinase (human)): 45%

Q: For `COc1cc(N2C(=O)Nc3c(C(=O)Nc4ccc(OCC5CCCCO5)c(OC)c4)sc4ncnc2c34)c(Cl)cc1Cl` (stereo not shown) [Cpd 45, 5-(2,4-dichloro-5-methoxy-phenyl)-4-oxo-4,5-dihydro-3H-1-thia-3,5,6,8-tetraaza-acenaphthylene-2-carboxylic acid [3-methoxy-4-(tetrahydro-pyran-2-ylmethoxy)-phenyl)-amide], which inhibition at 1 µM (HER-2) is on record?
A: Its inhibition at 1 µM is -25%.

Q: And the inhibition at 2 µM (Lyn kinase (human))?
A: The inhibition at 2 µM was 29%.

Q: What about the inhibition at 2 µM (EGFR) of the same compound?
A: Its inhibition at 2 µM is 14%.

Q: And the inhibition at 2 µM (c-Src kinase (human))?
A: The inhibition at 2 µM was 17%.

Q: How did the inhibition at 1 µM (HER-2) turn out when `COc1cc(N2C(=O)Nc3c(C(=O)N4CCCC4)sc4ncnc2c34)c(Cl)cc1Cl` [Cpd 46, 5-(2,4-dichloro-5-methoxy-phenyl)-2-(pyrrolidine-1-carbonyl)3H,5H-1-thia-3,5,6,8-tetraaza-acenaphthylen-4-one] was run?
A: The inhibition at 1 µM was 0%.

Q: And the inhibition at 2 µM (Lyn kinase (human))?
A: The inhibition at 2 µM was 40%.

Q: And the inhibition at 2 µM (EGFR)?
A: The inhibition at 2 µM was 1%.

Q: And the inhibition at 2 µM (c-Src kinase (human))?
A: Its inhibition at 2 µM is 30%.

Q: What does the source list for `COc1ccc(Cl)c(N2C(=O)Nc3c(C(=O)O)sc4ncnc2c34)c1` [Cpd 47, 5-(2-chloro-5-methoxy-phenyl)-4-oxo-4,5-dihydro-3H-1-thia-3,5,6,8-tetraaza-acenaphthylene-2-carboxylic acid]?
A: inhibition at 1 µM (HER-2): -28%; inhibition at 2 µM (Lyn kinase (human)): 28%; inhibition at 2 µM (EGFR): 5%; inhibition at 2 µM (c-Src kinase (human)): 9%

Q: What does the source list for `O=C(Nc1ccc(CN2CCOCC2)cc1)c1sc2ncnc3c2c1NC(=O)N3c1ccc(Br)cc1F` [Cpd 53, 5-(4-bromo-2-fluoro-phenyl)-4-oxo-4,5-dihydro-3H-1-thia-3,5,6,8-tetraaza-acenaphthylene-2-carboxylic acid (4-morpholin-4-ylmethyl-phenyl)-amide]?
A: inhibition at 1 µM (HER-2): -13%; inhibition at 2 µM (Lyn kinase (human)): 17%; inhibition at 2 µM (EGFR): 34%; inhibition at 2 µM (c-Src kinase (human)): 11%

Q: Which inhibition at 1 µM (HER-2) does the source give for `O=C(Nc1ccc(CN2CCCC2)cc1)c1sc2ncnc3c2c1NC(=O)N3c1cc(OCc2cccc(F)c2)c(Cl)cc1Cl` [Cpd 55, 5-[2,4-dichloro-5-(3-fluoro-benzyloxy)-phenyl]-4-oxo-4,5-dihydro-3H-1-thia-3,5,6,8-tetraaza-acenaphthylene-2-carboxylic acid (4-pyrrolidin-1-ylmethyl-phenyl)-amide] here?
A: The inhibition at 1 µM was -22%.

Q: And the inhibition at 2 µM (Lyn kinase (human))?
A: The inhibition at 2 µM was 3%.

Q: What about the inhibition at 2 µM (EGFR) of the same compound?
A: The inhibition at 2 µM was 14%.

Q: And the inhibition at 2 µM (c-Src kinase (human))?
A: Its inhibition at 2 µM is -16%.

Q: `COc1cc(NC(=O)c2sc3ncnc4c3c2NC(=O)N4c2cc(OCc3cccc(F)c3)c(Cl)cc2Cl)ccc1OCCN1CCCCC1` [Cpd 56, 5-[2,4-dichloro-5-(3-fluoro-benzyloxy)-phenyl]-4-oxo-4,5-dihydro-3H-1-thia-3,5,6,8-tetraaza-acenaphthylene-2-carboxylic acid [3-methoxy-4-(2-piperidin-1-yl-ethoxy)-phenyl]-amide] was tested. Which inhibition at 1 µM (HER-2) did it give?
A: The inhibition at 1 µM was -6%.

Q: What about the inhibition at 2 µM (Lyn kinase (human)) of the same compound?
A: Its inhibition at 2 µM is 7%.

Q: What about the inhibition at 2 µM (EGFR) of the same compound?
A: The inhibition at 2 µM was 20%.

Q: And the inhibition at 2 µM (c-Src kinase (human))?
A: Its inhibition at 2 µM is -22%.

Q: Which results are given for `O=C(Nc1ccc(CN2CCCCC2)cc1)c1sc2ncnc3c2c1NC(=O)N3c1cc(OCc2cccc(F)c2)c(Cl)cc1Cl` [Cpd 57, 5-[2,4-dichloro-5-(3-fluoro-benzyloxy)-phenyl]-4-oxo-4,5-dihydro-3H-1-thia-3,5,6,8-tetraaza-acenaphthylene-2-carboxylic acid (4-piperidin-1-ylmethyl-phenyl)-amide]?
A: inhibition at 1 µM (HER-2): -20%; inhibition at 2 µM (Lyn kinase (human)): 1%; inhibition at 2 µM (EGFR): 12%; inhibition at 2 µM (c-Src kinase (human)): -16%

Q: `O=C(O)c1sc2ncnc3c2c1NC(=O)N3c1cc(OCc2cccc(F)c2)c(Cl)cc1Cl` [Cpd 58, 5-[2,4-dichloro-5-(3-fluoro-benzyloxy)-phenyl]-4-oxo-4,5-dihydro-3H-1-thia-3,5,6,8-tetraaza-acenaphthylene-2-carboxylic acid] was tested. Which inhibition at 1 µM (HER-2) did it give?
A: The inhibition at 1 µM was -27%.

Q: What about the inhibition at 2 µM (Lyn kinase (human)) of the same compound?
A: Its inhibition at 2 µM is 6%.

Q: And the inhibition at 2 µM (EGFR)?
A: Its inhibition at 2 µM is 16%.

Q: What about the inhibition at 2 µM (c-Src kinase (human)) of the same compound?
A: Its inhibition at 2 µM is -48%.

Q: What does the source list for `CN(Cc1ccc(NC(=O)c2sc3ncnc4c3c2NC(=O)N4c2cc(OCc3cccc(F)c3)c(Cl)cc2Cl)cc1)C[C@H]1CCCO1` [Cpd 59, 5-[2,4-dichloro-5-(3-fluoro-benzyloxy)-phenyl]-4-oxo-4,5-dihydro-3H-1-thia-3,5,6,8-tetraaza-acenaphthylene-2-carboxylic acid [4-({methyl-[(2R)-tetrahydro-furan-2-ylmethyl]-amino}-methyl)-phenyl]-amide]?
A: inhibition at 1 µM (HER-2): -18%; inhibition at 2 µM (Lyn kinase (human)): 8%; inhibition at 2 µM (EGFR): 20%; inhibition at 2 µM (c-Src kinase (human)): -13%

Q: How did the inhibition at 1 µM (HER-2) turn out when `CN1CCN(Cc2ccc(NC(=O)c3sc4ncnc5c4c3NC(=O)N5c3cc(OCc4cccc(F)c4)c(Cl)cc3Cl)cc2)CC1` [Cpd 61, 5-[2,4-dichloro-5-(3-fluoro-benzyloxy)-phenyl]-4-oxo-4,5-dihydro-3H-1-thia-3,5,6,8-tetraaza-acenaphthylene-2-carboxylic acid [4-(4-methyl-piperazin-1-ylmethyl)-phenyl]-amide] was run?
A: The inhibition at 1 µM was -11%.

Q: What about the inhibition at 2 µM (Lyn kinase (human)) of the same compound?
A: Its inhibition at 2 µM is 30%.

Q: What about the inhibition at 2 µM (EGFR) of the same compound?
A: Its inhibition at 2 µM is 9%.

Q: What about the inhibition at 2 µM (c-Src kinase (human)) of the same compound?
A: The inhibition at 2 µM was -2%.

Q: For `COc1ccc(N2C(=O)Nc3c(C(=O)Nc4ccc(CN5CCOCC5)cc4)sc4ncnc2c34)c(F)c1` [Cpd 65, 5-(2-fluoro-4-methoxy-phenyl)-4-oxo-4,5-dihydro-3H-1-thia-3,5,6,8-tetraaza-acenaphthylene-2-carboxylic acid (4-morpholin-4-ylmethyl-phenyl)-amide], which inhibition at 1 µM (HER-2) is on record?
A: Its inhibition at 1 µM is 58%.

Q: What about the IC50 (HER-2) of the same compound?
A: Its IC50 is 0.643 µM.

Q: And the inhibition at 2 µM (Lyn kinase (human))?
A: Its inhibition at 2 µM is 17.8%.

Q: What about the IC50 (EGFR) of the same compound?
A: The IC50 was 0.12 µM.

Q: What about the inhibition at 2 µM (c-Src kinase (human)) of the same compound?
A: Its inhibition at 2 µM is -9%.

Q: For `COc1ccc(N2C(=O)Nc3c(C(=O)Nc4ccc(OCCN5CCOCC5)c(OC)c4)sc4ncnc2c34)c(F)c1` [Cpd 67, 5-(2-fluoro-4-methoxy-phenyl)-4-oxo-4,5-dihydro-3H-1-thia-3,5,6,8-tetraaza-acenaphthylene-2-carboxylic acid [3-methoxy-4-(2-morpholin-4-yl-ethoxy)-phenyl]-amide], which inhibition at 1 µM (HER-2) is on record?
A: Its inhibition at 1 µM is 51%.

Q: What about the IC50 (HER-2) of the same compound?
A: The IC50 was 0.965 µM.

Q: And the inhibition at 2 µM (Lyn kinase (human))?
A: The inhibition at 2 µM was 22.5%.

Q: And the IC50 (EGFR)?
A: Its IC50 is 0.103 µM.

Q: And the inhibition at 2 µM (c-Src kinase (human))?
A: The inhibition at 2 µM was -17%.

Q: Which results are given for `O=C(NCCN1CCOCC1)c1sc2ncnc3c2c1NC(=O)N3c1ccc(Oc2ccccc2)cc1` [Cpd 105, 4-oxo-5-(4-phenoxy-phenyl)-4,5-dihydro-3H-1-thia-3,5,6,8-tetraaza-acenaphthylene-2-carboxylic acid (2-morpholin-4-yl-ethyl)-amide]?
A: IC50 (HER-2): 3.15 µM; inhibition at 2 µM (Lyn kinase (human)): -3%; IC50 (EGFR): 0.11 µM; inhibition at 2 µM (c-Src kinase (human)): 12%
